{
  "source": "patent EP3466419B1",
  "about": "“USE OF TRIMETHOXYBENZYL ACETYLSINAPATE, ADVANTAGEOUSLY IN COMBINATION WITH AT LEAST ONE SUNSCREEN, FOR PROTECTING THE SKIN” (Thorel, Jean-Noël, priority 2017, dated 2019)",
  "system": "Nrf2",
  "test": "Induction of the Nrf2 pathway, luciferase reporter assay in the « ARE Reporter-HepG2 » cell model",
  "assay_type": "cell-based",
  "details": "18 hours of contact, relative to solvent control cells",
  "method": "Le but de l'étude est d'évaluer l'induction de la voie Nrf2 dans le modèle cellulaire « ARE Reporter-HepG2 » (HepG2; BPS BIOSCIENCE) [Lee et al., (2004), Dinkova-Kostova et al., (2002)] par l'actif visé dans l'invention.\nEn parallèle du test de cytotoxicité, des cellules HepG2 ont été également ensemencées dans des puits de plaques à 96 puits (plaques opaques avec fond transparent) à raison de 40 000 cellules/puits (volume de 100 µL), en milieu M1.\nSeuls les 60 puits centraux des plaques ont été utilisés, les puits restants n'ont reçu que du PBS.\nAprès adhésion des cellules, le milieu de culture M1 a été enlevé. Les cellules ont été traitées (volume final: 50 µL) avec le produit à l'essai, dilué dans le milieu de culture M1 (n=3/concentration à tester, 1 concentration/produit), pendant 18 heures. […]\nLes puits « sans cellules » ont servi à la détection de la luminescence liée au bruit de fond du milieu. Les puits « cellules témoins » ont servi à la détection de la luminescence intrinsèque du système d'essais (sans activation). […]\nA la fin de la période d'incubation (18 heures à 37°C, 5 % de CO2), les cellules ont été lysées par ajout de 100 µL du réactif « One-step luciferase assay system ». La luminescence émise par la luciférase néo-synthétisée a été évaluée avec un luminomètre Optima. […]",
  "data": [
    {"smiles": "COc1cc(COC(=O)/C=C/c2cc(OC)c(OC(C)=O)c(OC)c2)cc(OC)c1OC", "note": "[trimethoxybenzyl acetylsinapate, 3-[4-(acetyloxy)-3,5-dimethoxyphenyl] -(3,4,5-trimethoxyphenyl)methyl ester-(2E)-Propenoic acid]", "values": [
      {"measurement": "activity at 0.00125 %", "setting": "dose 0,00125 %, read-out: taux d'activation de Nrf2", "result": 164, "unit": "%"}
    ]},
    {"smiles": "C[S+]([O-])CCCCN=C=S", "note": "(centres unmarked) [sulforaphane]", "values": [
      {"measurement": "activity at 3 µM", "setting": "Homo sapiens, HepG2, 3 µM, read-out: luminescence émise par les cellules HepG2 traitées, en comparaison au témoin solvant (activation de Nrf2)", "result": 438, "unit": "%"}
    ]}
  ]
}
